Data taken from article PMC7278359, “Small molecule AX-024 reduces T cell proliferation independently of CD3ϵ/Nck1 interaction, which is governed by a domain swap in the Nck1-SH3.1 domain” (The Journal of Biological Chemistry, 2020).
Entries after “also recorded” stand apart in the source; their conditions may differ.

Tests used:
CD4 T cell proliferation = CD4 T cell proliferation by CFSE dilution, anti-CD3 stimulation; type: cell-based, human; conditions: human CD3+ T cells (n = 4 donors), CFSE dilution gated on CD4, 0.2 μg·ml^−1 plate-bound anti-CD3 (OKT3), no co-stimulation, 4 days, 0.2% DMSO
Experimental: Figure 2. […] CD4 T cell proliferation was assessed upon stimulation with anti-CD3ϵ by CFSE dilution as a measure for cellular proliferation, analyzed on day 4. For rapamycin and AX-024–treated cells, the dashed line indicates control proliferation at a DMSO concentration of 0.2%. For CD3ϵ-derived peptides 11Rwt, 11R085, and 11Rscr, the dashed line indicates control proliferation at 0.3% DMSO, 0.3% PBS. 11Rwt has sequence R11-G3-[…], 11R085 R11-G3-Q(dK)[…], and 11Rscr R11-G3-[…](dK)PQP. A polyarginine tag is used to enable cell penetration of the peptides ([10]). The gray boxes indicate concentrations of compound leading to decreased cell viability. These values should be disregarded. Binding of peptides 11Rwt and 11R085, but not 11Rscr, to Nck-SH3.1 was confirmed by NMR spectroscopy (Fig. S1). Asterisks, p < 0.05 as determined by a repeated-measure one-way analysis of variance with Holm–Sidak's multiple-comparison test to DMSO/PBS. Dotted lines, mean DMSO/PBS values. Error bars, S.D.
Fresh human peripheral blood mononuclear cells (PBMCs) from healthy donors (n = 4) were prepared from buffy coats. CD3^+ T cells were isolated by immunomagnetic separation (negative selection, StemCell, lot 18A87710), carboxyfluorescein succinimidyl ester (CFSE)-labeled, resuspended in StemCell Immunocult^TM-XF T cell expansion medium, and treated with compounds or vehicle for 2 h at room temperature. The isolated CD3^+ T cells were stained for CD3, CD4, and CD8, and their purity was assessed by flow cytometry. Cells were then cultured in a 96-well flat-bottomed plate (10^5 cells/well), precoated for 1 h at 37 °C with 0.2 μg·ml^−1 plate-bound anti-CD3 (clone OKT3, BioLegend). […] Cells were cultured in the presence of AX-024, rapamycin, peptide 11Rwt, peptide 11R85, peptide 11Rscr (derived from Ref. [11]; see below for sequences), or vehicle for 4 days. At the end of culture, cells were stained for viability, and CFSE dilution was assessed by flow cytometry (with gating on CD4 versus CD8).

[1] = tested on: CD3ϵ peptide/Nck1-SH3.1 interaction; assay: SPR competition with CD3ϵ peptide on immobilized Nck1-SH3.1; type: binding, human; conditions: 100 μM AX-024 co-injected with 100 μM CD3ϵ peptide
Experimental: SPR experiments were conducted on a T200 Biacore instrument (GE Healthcare, Uppsala, Sweden) at 20 °C in 10 mM HEPES/NaOH, pH 7.8, 150 mM NaCl, 1 mM TCEP. His10-Avi-TEV-Nck1-SH3.1 (residues 1–61, MM 11,847 Da) was biotinylated and immobilized via streptavidin on the surface of either a CAP or a SA sensor, prepared according to the manufacturer's instructions (GE Healthcare). Streptavidin is immobilized on the CAP sensor by way of double-strand DNA formation. A ssDNA is covalently coupled to the sensor surface, and a complementary DNA strand, covalently linked to streptavidin, is hybridized. To regenerate the surface, the DNA duplex is dissociated by washing with high-ionic strength solution. Thus, after each titration, fresh biotinylated Nck1-SH3.1 was immobilized on the sensor surface. For CD3ϵ peptide-binding experiments, the surface density of the Nck1-SH3.1 domain was ∼250 response units (RU), whereas for binding experiments with AX-024 and APVA variant peptides, the surface density of Nck1-SH3.1 was increased to 1260 RU. […]
Binding of the CD3ϵ-derived peptide […]-NH2 (CD3ϵ residues 173–188; MM 1864.1 Da) or of the APVA variant […]-NH2 (MM 1811.1 Da) to the immobilized Nck1-SH3.1 domain was monitored in a concentration-dependent manner between 0.4 and 100 μM CD3ϵ peptide (200 μM in the case of the APVA variant peptide). […]

dimeric Nck1-SH3.1 = assay: Ligand-observed NMR with dimeric Nck1-SH3.1; type: binding, human; conditions: 50 μM ligand, 10 μM dimeric Nck1-SH3.1 (residues 1–61), pH 6.5, 150 mM NaCl, 27 °C
Experimental: NMR spectra were recorded on a Bruker 600-MHz Avance NEO spectrometer equipped with a cryogenic QCI probe head at 27 °C in 25 mM […], 150 mM NaCl. The Topspin 4.0 software (Bruker, Fällanden) was used for spectrometer operation and data processing. For ^1H ligand-observed measurements, a relaxation filtered pulse sequence utilizing a spinlock of 50 ms was applied. 1D spectra were acquired with 128 scans, a sweep width of 26 ppm, and an acquisition time of 2 s. 2D ^1H-^15N HSQC spectra with natural ^15N isotope abundance were recorded over 72 h with a spectral width of 16 ppm and 35 ppm in the proton and nitrogen dimensions, respectively, with 256 increments (complex) and 1000 scans per increment. A relaxation delay of 1 s was used between scans. For the DOSY measurements (reviewed in Ref. [51]), the Bruker pulse sequence ledbpgp2s with a diffusion delay of 50 ms and a gradient length of 600 μs was used. The gradient strength was varied from 5 to 95% to record 16 increments of 512 scans with a sweep width of 18 ppm and a relaxation delay of 1 s.
Samples for ligand-observed measurements were prepared in 25 mM sodium phosphate buffer, pH 6.5, 150 mM NaCl. One sample contained 50 μM AX-024, and the other contained 50 μM CD3ϵ peptide.

Nck1-SH3.1 = conditions: in vitro; ref [10]; cited from earlier work
Description: (§1) The objective of the present study was to initiate development of an inhibitor of the Nck/TCR interaction, specifically by blocking binding of the first SH3 domain in Nck (Nck1-SH3.1) to the PRS in the CD3ϵ subunit of the TCR.

T cell proliferation = conditions: response to weak antigens; ref [10]; cited from earlier work
Description: as §1

## COc1ccc2c(c1)C(c1ccc(F)cc1)=C(CN1CCCC1)CO2.Cl [AX-024, 1-((4-(4-fluorophenyl)-6-methoxy-2H-chromen-3-yl)methyl)pyrrolidine hydrochloride]
CD4 T cell proliferation
  inhibition of T cell proliferation: inhibited T cell proliferation
[1]
  effect on binding of CD3ϵ peptide to Nck1-SH3.1 (competition): unaffected by AX-024; also recorded: failed to show an effect on binding of CD3ϵ to immobilized Nck1-SH3.1
Dimeric Nck1-SH3.1
  ligand-observed NMR, spectral change / line broadening: do not show any spectral changes; also recorded: no interaction was observed
Nck1-SH3.1
  physical interaction with Nck1-SH3.1 (SPR and NMR): appeared to support physical interaction of AX-024 with the Nck1-SH3.1 domain
T cell proliferation
  inhibition of T cell proliferation: inhibit T cell proliferation specifically in response to weak antigens
